In ChEMBL document CHEMBL3217645, “Online parallel fragment screening and rapid hit exploration for nicotinic acetylcholine receptors” (Medchemcomm, 2011):

Assays:
[1] = Selectivity ratio of Ki for Lymnaea stagnalis AChBP over Ki for Aplysia californica AChBP
[2] = target: Acetylcholine-binding protein (Lymnaea stagnalis, UniProt P58154); test: Displacement of [3H]epibatadine from Lymnaea stagnalis recombinant C-terminal His-tagged AChBP expressed in baculovirus infected SF9 cells after 1.5 hrs by scintillation counting analysis
Chain of Acetylcholine-binding protein (P58154 whole entry): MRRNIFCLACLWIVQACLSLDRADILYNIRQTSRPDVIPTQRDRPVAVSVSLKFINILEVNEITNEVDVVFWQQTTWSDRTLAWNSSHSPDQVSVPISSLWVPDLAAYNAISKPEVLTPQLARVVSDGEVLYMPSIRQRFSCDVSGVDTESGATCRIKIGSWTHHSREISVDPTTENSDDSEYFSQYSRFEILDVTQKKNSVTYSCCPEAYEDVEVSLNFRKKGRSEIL

[3] = target: Neuronal acetylcholine receptor subunit alpha-7 (Homo sapiens, UniProt P36544); test: Displacement of [3H]epibatadine from human alpha7 nAChR expressed in human SH-SY5Y cells after 1.5 hrs by scintillation counting analysis; format: cell-based
Chain of Neuronal acetylcholine receptor subunit alpha-7 (P36544 whole entry): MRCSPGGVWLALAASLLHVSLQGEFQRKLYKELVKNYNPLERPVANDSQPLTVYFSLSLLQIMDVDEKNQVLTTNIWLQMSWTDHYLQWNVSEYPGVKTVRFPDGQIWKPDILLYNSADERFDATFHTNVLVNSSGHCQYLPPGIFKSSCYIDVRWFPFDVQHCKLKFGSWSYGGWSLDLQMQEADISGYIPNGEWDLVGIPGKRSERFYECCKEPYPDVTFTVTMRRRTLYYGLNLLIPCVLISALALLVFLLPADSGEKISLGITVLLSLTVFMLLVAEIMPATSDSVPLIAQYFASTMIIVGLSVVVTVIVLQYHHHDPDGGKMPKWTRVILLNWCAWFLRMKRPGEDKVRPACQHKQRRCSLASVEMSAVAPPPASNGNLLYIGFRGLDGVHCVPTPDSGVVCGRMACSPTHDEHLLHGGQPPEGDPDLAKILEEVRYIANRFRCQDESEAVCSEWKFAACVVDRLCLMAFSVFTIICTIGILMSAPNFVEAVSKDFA

[4] = Displacement of [3H]epibatadine from Aplysia californica recombinant C-terminal His-tagged AChBP expressed in baculovirus infected SF9 cells after 1.5 hrs by scintillation counting analysis
[5] = target: Neuronal acetylcholine receptor; alpha4/beta2 (Homo sapiens, UniProt P17787+P43681); test: Displacement of [3H]epibatadine from human alpha4beta2 nAChR expressed in HEK293T cells after 1.5 hrs by scintillation counting analysis; format: cell-based, HEK-293T
Chain of Neuronal acetylcholine receptor; alpha4/beta2 (P17787 whole entry): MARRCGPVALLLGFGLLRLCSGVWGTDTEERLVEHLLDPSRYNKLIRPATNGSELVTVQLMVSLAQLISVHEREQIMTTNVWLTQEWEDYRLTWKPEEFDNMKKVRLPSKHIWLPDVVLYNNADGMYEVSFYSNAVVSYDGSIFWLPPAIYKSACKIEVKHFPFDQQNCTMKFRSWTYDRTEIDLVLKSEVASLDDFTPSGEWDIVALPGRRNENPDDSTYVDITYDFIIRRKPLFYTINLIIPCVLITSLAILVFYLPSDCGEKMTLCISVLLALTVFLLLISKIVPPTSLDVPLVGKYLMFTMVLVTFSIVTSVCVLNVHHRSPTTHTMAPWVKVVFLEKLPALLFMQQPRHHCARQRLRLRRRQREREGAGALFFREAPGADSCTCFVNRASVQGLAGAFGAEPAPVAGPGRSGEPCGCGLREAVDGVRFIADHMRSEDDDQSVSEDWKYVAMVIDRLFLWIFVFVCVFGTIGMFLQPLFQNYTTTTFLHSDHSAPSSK
Chain of Neuronal acetylcholine receptor; alpha4/beta2 (P43681 whole entry): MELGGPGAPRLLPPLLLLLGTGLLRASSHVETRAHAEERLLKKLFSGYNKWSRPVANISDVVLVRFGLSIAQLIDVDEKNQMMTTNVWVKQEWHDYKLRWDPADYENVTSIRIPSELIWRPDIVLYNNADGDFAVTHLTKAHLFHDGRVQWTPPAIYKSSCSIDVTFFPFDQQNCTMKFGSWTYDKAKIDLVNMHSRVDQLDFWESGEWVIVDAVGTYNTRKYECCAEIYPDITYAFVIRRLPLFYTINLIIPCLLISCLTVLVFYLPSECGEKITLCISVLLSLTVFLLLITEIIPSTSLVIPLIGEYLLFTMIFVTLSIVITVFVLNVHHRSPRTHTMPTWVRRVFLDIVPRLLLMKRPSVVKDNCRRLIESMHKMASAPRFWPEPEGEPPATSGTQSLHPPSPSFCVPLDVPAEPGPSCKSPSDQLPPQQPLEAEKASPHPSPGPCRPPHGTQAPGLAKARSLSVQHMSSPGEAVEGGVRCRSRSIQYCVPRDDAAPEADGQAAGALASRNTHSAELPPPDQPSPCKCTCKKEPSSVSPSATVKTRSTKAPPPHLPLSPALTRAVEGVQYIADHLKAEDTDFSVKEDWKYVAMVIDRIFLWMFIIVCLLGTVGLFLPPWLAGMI

[6] = Selectivity ratio of Ki for Lymnaea stagnalis recombinant C-terminal His-tagged AChBP to Ki for human alpha7 nAChR

Compound	Ratio Ki [1]	Ki [2] [µM]	Ki [3] [µM]	pKi [4]	Ki [5] [µM]	Ratio Ki [6]
C[C@H](NC(=O)[C@H](CS)NC(=O)[C@H](CCCNC(=N)N)NC(=O)[C@@H]1CCCN1C(=O)[C@H](CC(=O)O)NC(=O)[C@H](CO)NC(=O)[C@H](CS)NC(=O)[C@H](CS)NC(=O)CN)C(=O)N[C@@H](Cc1c[nH]c2ccccc12)C(=O)N[C@@H](CCCNC(=N)N)C(=O)N[C@@H](CS)C(N)=O	> 6000	–	–	–	–	–
Fc1ccc(F)c(NN=C2CCN(CCc3ccccc3)CC2)c1	–	0.0891	> 100	–	–	–
CC(C)N1CCC(=NO)CC1	> 9.5	10.5	10.2	< 4	> 100	–
CN1[C@@H]2CC[C@H]1C/C(=N\Nc1ccccc1Cl)C2	–	0.204	2.19	–	–	5
